Patent US20240376094A2, “SELECTIVE BCL-XL PROTAC COMPOUNDS AND METHODS OF USE” (Les Laboratoires Servier, priority 2021, published 2024)

Key:
Format in all cases: cell-based
Bcl-xL = target: T1, Bcl-xL (Homo sapiens, UniProt Q07817); assay: HCT116 Bcl-xL degradation, capillary-based immunoassay (WES); details: for DC50: HCT116, 24 h, 9-point serial dilution; for remaining activity at 0.01 µM / remaining activity at 0.1 µM: HCT-116, 24 h, % of untreated cells; for remaining activity at 0.01 µM: HCT116, 10 nM; for remaining activity at 0.1 µM: HCT116, 100 nM
T1 construct: Measured levels of Bcl-xL protein of HCT116 cells treated with the tested compounds; host or cells: HCT116
Outline: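 Bcl-xL protein level by capillary WES immunoassay in HCT116 lysates, as % of untreated after cofilin normalization. Compound exposure was 24 h at 10 and 100 nM and/or a 9-point series, in quadruplicate. Four-parameter fitting gave the DC50.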

HiBiT-tagged BCL-xL = target: T2, HiBiT-tagged BCL-xL (Homo sapiens, UniProt Q07817); assay: NCI-H1650 BCL-xL protein levels, Nano-Glo HiBiT Lytic Detection; details: NCI-H1650 expressing HiBiT-tagged BCL-xL, overnight incubation, read-out: Bcl-xl HIBIT NCIH1650 DC50
T2 construct: expressed in transfected cells; host or cells: NCI-H1650 (ATCC No. CRL-5883), engineered HiBiT cell line
Outline: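 HiBiT luminescence after cell lysis with LgBiT/furimazine reagent reported BCL-xL levels, expressed relative to untreated wells and fitted with a four-parameter logistic equation. Engineered NCI-H1650 cells were exposed overnight at 37° C to compound at final 0.508 nM-10 μM (10 points, triplicate plates).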

MOLT-4 cells = assay: MOLT-4 cell viability, MTT assay; details: Homo sapiens, MOLT-4, 48 h
Outline: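 MOLT-4 cells in RPMI 1640 with 10% FBS were exposed to compounds for 48 h at 9 concentrations (3.16-fold dilutions, triplicates). After 4 h with MTT and overnight SDS/HCl solubilisation, absorbance was read at 540 nm. IC50 came from four-parameter fits versus control, as the mean of ≥2 independent experiments.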

[1] = test system: EBC-1 lung cancer cell line; assay: EBC-1 cell proliferation, CellTiter-Glo assay; details: Homo sapiens, 120 h; Ebc-1 cell viability, CTG assay, 5 days of treatment; read-out: CTG 5 day Ebc1 GI50
Outline: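 CellTiter-Glo read-out after 5-day compound treatment, normalised to untreated cells, with GI50 derived by four-parameter logistic regression. Ten concentrations spanning 0.508 nM–10 μM were added to 1000 EBC-1 cells per well the day after seeding. Assays required at least one cell doubling versus Day 0.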

T2 sequence (Q07817 whole entry): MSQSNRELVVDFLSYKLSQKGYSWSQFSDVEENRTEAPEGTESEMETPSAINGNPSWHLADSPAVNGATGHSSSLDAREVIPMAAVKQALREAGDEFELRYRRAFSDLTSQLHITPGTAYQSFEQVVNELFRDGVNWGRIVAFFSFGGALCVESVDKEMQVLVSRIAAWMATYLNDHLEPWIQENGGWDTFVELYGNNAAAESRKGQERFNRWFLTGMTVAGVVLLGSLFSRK
T1 sequence (Q07817 whole entry): as above

Row | Structure (SMILES) | DC50 (Bcl-xL) [nM] | remaining activity at 0.01 µM (Bcl-xL) [%] | remaining activity at 0.1 µM (Bcl-xL) [%] | DC50 (HiBiT-tagged BCL-xL) [nM] | IC50 (MOLT-4 cells) [nM] | GI50 [1] [nM]
1 | Cc1ncsc1-c1ccc([C@H](C)NC(=O)[C@@H]2C[C@@H](O)CN2C(=O)[C@@H](NC(=O)CCCCCCCCCCCCCN(C)CCOC23CC4(C)CC(C)(CC(Cn5ncc(-c6ccc(N7CCCc8c7nnc(Nc7nc9ccccc9s7)c8C)nc6C(=O)O)c5C)(C4)C2)C3)C(C)(C)C)cc1 [Example 4, 6-[3-(1,3-benzothiazol-2-ylamino)-4-methyl-6,7-dihydro-5H-pyrido[2,3-c]pyridazin-8-yl]-3-[1-[[3-[2-[[14-[[(1S)-1-[(2S,4R)-4-hydroxy-2-[[(1S)-1-[4-(4-methylthiazol-5-yl)phenyl]ethyl]carbamoyl]pyrrolidine-1-carbonyl]-2,2-dimethyl-propyl]amino]-14-oxo-tetradecyl]-methyl-amino]ethoxy]-5,7-dimethyl-1-adamantyl]methyl]-5-methyl-pyrazol-4-yl]pyridine-2-carboxylic acid] | 0.279 | 33 | 14 | 0.4 | 0.85 | 1
2 | Cc1ncsc1-c1ccc(CNC(=O)[C@@H]2C[C@@H](O)CN2C(=O)[C@@H](NC(=O)CCCCC(=O)N2CCN(CC#Cc3ccc(OCCCc4sc(N5CCCc6c5nnc(Nc5nc7ccccc7s5)c6C)nc4C(=O)O)c(F)c3)CC2)C(C)(C)C)cc1 [Example 19, 2-[3-(1,3-benzothiazol-2-ylamino)-4-methyl-6,7-dihydro-5H-pyrido[2,3-c]pyridazin-8-yl]-5-[3-[2-fluoro-4-[3-[4-[6-[[(1S)-1-[(2S,4R)-4-hydroxy-2-[[4-(4-methylthiazol-5-yl)phenyl]methylcarbamoyl]pyrrolidine-1-carbonyl]-2,2-dimethyl-propyl]amino]-6-oxo-hexanoyl]piperazin-1-yl]prop-1-ynyl]phenoxy]propyl]thiazole-4-carboxylic acid] | – | 104 | 88 | > 1670 | 13.2 | 25
3 | Cc1c(Nc2nc3ccccc3s2)nnc2c1CCCN2c1ccc(-c2cnn(CC34CC5(C)CC(C)(C3)CC(OCCN(C)CCCCCCCCCCOc3ccc6c(c3)C(=O)N(C3CCC(=O)NC3=O)C6=O)(C5)C4)c2C)c(C(=O)O)n1 (stereo not shown) [Example 60, 6-[3-(1,3-benzothiazol-2-ylamino)-4-methyl-6,7-dihydro-5H-pyrido[2,3-c]pyridazin-8-yl]-3-[1-[[3-[2-[10-[2-(2,6-dioxo-3-piperidyl)-1,3-dioxo-isoindolin-5-yl]oxydecyl-methyl-amino]ethoxy]-5,7-dimethyl-1-adamantyl]methyl]-5-methyl-pyrazol-4-yl]pyridine-2-carboxylic acid] | 0.11 | 19 | 23 | > 1670 | 0.717 | 1
4 | Cc1ncsc1-c1ccc([C@H](C)NC(=O)[C@@H]2C[C@@H](O)CN2C(=O)[C@@H](NC(=O)CCCCCCCCCCN(C)CCOC23CC4(C)CC(C)(CC(Cn5ncc(-c6ccc(N7CCCc8c7nnc(Nc7nc9ccccc9s7)c8C)nc6C(=O)O)c5C)(C4)C2)C3)C(C)(C)C)cc1 [Example 135, 6-[3-(1,3-benzothiazol-2-ylamino)-4-methyl-6,7-dihydro-5H-pyrido[2,3-c]pyridazin-8-yl]-3-[1-[[3-[2-[[11-[[(1S)-1-[(2S,4R)-4-hydroxy-2-[[(1S)-1-[4-(4-methylthiazol-5-yl)phenyl]ethyl]carbamoyl]pyrrolidine-1-carbonyl]-2,2-dimethyl-propyl]amino]-11-oxo-undecyl]-methyl-amino]ethoxy]-5,7-dimethyl-1-adamantyl]methyl]-5-methyl-pyrazol-4-yl]pyridine-2-carboxylic acid] | 0.978 | – | – | 1 | 3.51 | 4

More lines, now with the values ahead:

Row | DC50 (Bcl-xL) [nM] | remaining activity at 0.01 µM (Bcl-xL) [%] | remaining activity at 0.1 µM (Bcl-xL) [%] | DC50 (HiBiT-tagged BCL-xL) [nM] | IC50 (MOLT-4 cells) [nM] | GI50 [1] [nM] | Structure (SMILES)
5 | 2.71 | – | – | 1 | 1.45 | 1 | Cc1ncsc1-c1ccc([C@H](C)NC(=O)[C@@H]2C[C@@H](O)CN2C(=O)[C@@H](NC(=O)CCCCCCCCCCCCN(C)CCOC23CC4(C)CC(C)(CC(Cn5ncc(-c6ccc(N7CCCc8c7nnc(Nc7nc9ccccc9s7)c8C)nc6C(=O)O)c5C)(C4)C2)C3)C(C)(C)C)cc1 [Example 136, 6-[3-(1,3-benzothiazol-2-ylamino)-4-methyl-6,7-dihydro-5H-pyrido[2,3-c]pyridazin-8-yl]-3-[1-[[3-[2-[[13-[[(1S)-1-[(2S,4R)-4-hydroxy-2-[[(1S)-1-[4-(4-methylthiazol-5-yl)phenyl]ethyl]carbamoyl]pyrrolidine-1-carbonyl]-2,2-dimethyl-propyl]amino]-13-oxo-tridecyl]-methyl-amino]ethoxy]-5,7-dimethyl-1-adamantyl]methyl]-5-methyl-pyrazol-4-yl]pyridine-2-carboxylic acid]
6 | > 316 | – | – | > 1670 | 16.2 | 4 | Cc1ncsc1-c1ccc(CNC(=O)[C@@H]2C[C@@H](O)CN2C(=O)[C@@H](NC(=O)C2(F)CC2)C(C)(C)C)c(OCCCCCCN(C)CCOC23CC4(C)CC(C)(CC(Cn5ncc(-c6ccc(N7CCCc8c7nnc(Nc7nc9ccccc9s7)c8C)nc6C(=O)O)c5C)(C4)C2)C3)c1 [Example 137, 6-[3-(1,3-benzothiazol-2-ylamino)-4-methyl-6,7-dihydro-5H-pyrido[2,3-c]pyridazin-8-yl]-3-[1-[[3-[2-[6-[2-[[[(2S,4R)-1-[(2S)-2-[(1-fluorocyclopropanecarbonyl)amino]-3,3-dimethyl-butanoyl]-4-hydroxy-pyrrolidine-2-carbonyl]amino]methyl]-5-(4-methylthiazol-5-yl)phenoxy]hexyl-methyl-amino]ethoxy]-5,7-dimethyl-1-adamantyl]methyl]-5-methyl-pyrazol-4-yl]pyridine-2-carboxylic acid]
7 | 0.397 | – | – | 3 | 3.52 | 7 | Cc1ncsc1-c1ccc(CNC(=O)[C@@H]2C[C@@H](O)CN2C(=O)[C@@H](NC(=O)C2(F)CC2)C(C)(C)C)c(OCCCCCCCCCCCCN(C)CCOC23CC4(C)CC(C)(CC(Cn5ncc(-c6ccc(N7CCCc8c7nnc(Nc7nc9ccccc9s7)c8C)nc6C(=O)O)c5C)(C4)C2)C3)c1 [Example 139, 6-[3-(1,3-benzothiazol-2-ylamino)-4-methyl-6,7-dihydro-5H-pyrido[2,3-c]pyridazin-8-yl]-3-[1-[[3-[2-[12-[2-[[[(2S,4R)-1-[(2S)-2-[(1-fluorocyclopropanecarbonyl)amino]-3,3-dimethyl-butanoyl]-4-hydroxy-pyrrolidine-2-carbonyl]amino]methyl]-5-(4-methylthiazol-5-yl)phenoxy]dodecyl-methyl-amino]ethoxy]-5,7-dimethyl-1-adamantyl]methyl]-5-methyl-pyrazol-4-yl]pyridine-2-carboxylic acid]
8 | 11.4 | – | – | > 1670 | 82.1 | 121 | Cc1cc(N(CCCCCn2cc(CCCCCCCCC(=O)N[C@H](C(=O)N3C[C@H](O)C[C@H]3C(=O)NCc3ccc(-c4scnc4C)cc3)C(C)(C)C)nn2)c2ccc(-c3cnn(CC45CC6(C)CC(C)(C4)CC(OCCN(C)C)(C6)C5)c3C)c(C(=O)O)n2)nnc1Nc1nc2ccccc2s1 [Example 152, 6-[[6-(1,3-benzothiazol-2-ylamino)-5-methyl-pyridazin-3-yl]-[5-[4-[9-[[(1S)-1-[(2S,4R)-4-hydroxy-2-[[4-(4-methylthiazol-5-yl)phenyl]methylcarbamoyl]pyrrolidine-1-carbonyl]-2,2-dimethyl-propyl]amino]-9-oxo-nonyl]triazol-1-yl]pentyl]amino]-3-[1-[[3-[2-(dimethylamino)ethoxy]-5,7-dimethyl-1-adamantyl]methyl]-5-methyl-pyrazol-4-yl]pyridine-2-carboxylic acid]
